Reference: ChEMBL document CHEMBL1212758 (Antimicrob Agents Chemother, 2010)

system: Macacine alphaherpesvirus 1; assay: Ratio of acyclovir EC50 to compound EC50 for Macacine herpesvirus 1 isolate E2490 infected in african green monkey Vero cells; assay type: functional; settings: not given

Compound | Ratio EC50
Nc1nc(=O)n([C@@H]2O[C@H](CO)[C@@H](O)[C@@H]2F)cc1Br | 10
CCc1cn([C@H]2O[C@@H](CO)[C@H](O)[C@H]2F)c(=O)[nH]c1=O (single isomer, unassigned) | 100

system: Macacine alphaherpesvirus 1; assay: Ratio of acyclovir EC50 to compound EC50 for Macacine herpesvirus 1 isolate MR11 infected in african green monkey Vero cells; assay type: functional; settings: not given

Compound | Ratio EC50
Nc1nc(=O)n([C@@H]2O[C@H](CO)[C@@H](O)[C@@H]2F)cc1Br | 10
CCc1cn([C@H]2O[C@@H](CO)[C@H](O)[C@H]2F)c(=O)[nH]c1=O (single isomer, unassigned) | 100

system: Macacine alphaherpesvirus 1; assay: Ratio of acyclovir EC50 to compound EC50 for Macacine herpesvirus 1 isolate A5 infected in african green monkey Vero cells; assay type: functional; settings: not given

Compound | Ratio EC50
Nc1nc(=O)n([C@@H]2O[C@H](CO)[C@@H](O)[C@@H]2F)cc1Br | 10
CCc1cn([C@H]2O[C@@H](CO)[C@H](O)[C@H]2F)c(=O)[nH]c1=O (single isomer, unassigned) | 100

system: Macacine alphaherpesvirus 1; assay: Ratio of acyclovir EC50 to compound EC50 for Macacine herpesvirus 1 isolate MR2 infected in african green monkey Vero cells; assay type: functional; settings: not given

Compound | Ratio EC50
Nc1nc(=O)n([C@@H]2O[C@H](CO)[C@@H](O)[C@@H]2F)cc1Br | 10
CCc1cn([C@H]2O[C@@H](CO)[C@H](O)[C@H]2F)c(=O)[nH]c1=O (single isomer, unassigned) | 100

system: Human alphaherpesvirus 1; assay: Ratio of acyclovir EC50 to compound EC50 for HSV1 infected in african green monkey Vero cells; assay type: functional; settings: not given

Compound | Ratio EC50
Nc1nc(=O)n([C@@H]2O[C@H](CO)[C@@H](O)[C@@H]2F)cc1Br | 10
CCc1cn([C@H]2O[C@@H](CO)[C@H](O)[C@H]2F)c(=O)[nH]c1=O (single isomer, unassigned) | 100

system: Macacine alphaherpesvirus 1; assay: Ratio of acyclovir EC50 to compound EC50 for Macacine herpesvirus 1 isolate MJ2 infected in african green monkey Vero cells; assay type: functional; settings: not given

Compound | Ratio EC50
Nc1nc(=O)n([C@@H]2O[C@H](CO)[C@@H](O)[C@@H]2F)cc1Br | 10
CCc1cn([C@H]2O[C@@H](CO)[C@H](O)[C@H]2F)c(=O)[nH]c1=O (single isomer, unassigned) | 100

system: Macacine alphaherpesvirus 1; assay: Ratio of acyclovir EC50 to compound EC50 for Macacine herpesvirus 1 isolate MR10 infected in african green monkey Vero cells; assay type: functional; settings: not given

Compound | Ratio EC50
Nc1nc(=O)n([C@@H]2O[C@H](CO)[C@@H](O)[C@@H]2F)cc1Br | 10
CCc1cn([C@H]2O[C@@H](CO)[C@H](O)[C@H]2F)c(=O)[nH]c1=O (single isomer, unassigned) | 100

system: Macacine alphaherpesvirus 1; assay: Ratio of acyclovir EC50 to compound EC50 for Macacine herpesvirus 1 isolate MC1 infected in african green monkey Vero cells; assay type: functional; settings: not given

Compound | Ratio EC50
Nc1nc(=O)n([C@@H]2O[C@H](CO)[C@@H](O)[C@@H]2F)cc1Br | 10
CCc1cn([C@H]2O[C@@H](CO)[C@H](O)[C@H]2F)c(=O)[nH]c1=O (single isomer, unassigned) | 100

system: Macacine alphaherpesvirus 1; assay: Ratio of acyclovir EC50 to compound EC50 for Macacine herpesvirus 1 isolate MR7 infected in african green monkey Vero cells; assay type: functional; settings: not given

Compound | Ratio EC50
Nc1nc(=O)n([C@@H]2O[C@H](CO)[C@@H](O)[C@@H]2F)cc1Br | 10
CCc1cn([C@H]2O[C@@H](CO)[C@H](O)[C@H]2F)c(=O)[nH]c1=O (single isomer, unassigned) | 100

system: Macacine alphaherpesvirus 1; assay: Ratio of acyclovir EC50 to compound EC50 for Macacine herpesvirus 1 isolate MR8 infected in african green monkey Vero cells; assay type: functional; settings: not given

Compound | Ratio EC50
Nc1nc(=O)n([C@@H]2O[C@H](CO)[C@@H](O)[C@@H]2F)cc1Br | 10
CCc1cn([C@H]2O[C@@H](CO)[C@H](O)[C@H]2F)c(=O)[nH]c1=O (single isomer, unassigned) | 100

system: Human alphaherpesvirus 2; assay: Antiviral activity against HSV2 infected in african green monkey Vero cells by plaque reduction assay; assay type: functional, organism-based; settings: Human alphaherpesvirus 2, Vero

Compound | EC50 [µM]
Nc1nc2c(ncn2COC(CO)CO)c(=O)[nH]1 [GANCICLOVIR] | 19.3

system: Human alphaherpesvirus 2; assay: Ratio of acyclovir EC50 to compound EC50 for HSV 2 infected in african green monkey Vero cells; assay type: functional; settings: not given

Compound | Ratio EC50
Nc1nc(=O)n([C@@H]2O[C@H](CO)[C@@H](O)[C@@H]2F)cc1Br | 10
CCc1cn([C@H]2O[C@@H](CO)[C@H](O)[C@H]2F)c(=O)[nH]c1=O (single isomer, unassigned) | 100

system: Macacine alphaherpesvirus 1; assay: Ratio of acyclovir EC50 to compound EC50 for Macacine herpesvirus 1 isolate MP1 infected in african green monkey Vero cells; assay type: functional; settings: not given

Compound | Ratio EC50
Nc1nc(=O)n([C@@H]2O[C@H](CO)[C@@H](O)[C@@H]2F)cc1Br | 10
CCc1cn([C@H]2O[C@@H](CO)[C@H](O)[C@H]2F)c(=O)[nH]c1=O (single isomer, unassigned) | 100

system: Macacine alphaherpesvirus 1; assay: Antiviral activity against Macacine herpesvirus 1 isolate MC1 infected in african green monkey Vero cells by plaque reduction assay; assay type: functional, organism-based; settings: Macacine alphaherpesvirus 1, isolate MC1, Vero

Compound | EC50 [µM]
Nc1nc2c(ncn2COC(CO)CO)c(=O)[nH]1 [GANCICLOVIR] | 19.3

system: Macacine alphaherpesvirus 1; assay: Ratio of acyclovir EC50 to compound EC50 for Macacine herpesvirus 1 isolate A1 infected in african green monkey Vero cells; assay type: functional; settings: not given

Compound | Ratio EC50
Nc1nc(=O)n([C@@H]2O[C@H](CO)[C@@H](O)[C@@H]2F)cc1Br | 10
CCc1cn([C@H]2O[C@@H](CO)[C@H](O)[C@H]2F)c(=O)[nH]c1=O (single isomer, unassigned) | 100

system: Macacine alphaherpesvirus 1; assay: Ratio of acyclovir EC50 to compound EC50 for Macacine herpesvirus 1 isolate A6 infected in african green monkey Vero cells; assay type: functional; settings: not given

Compound | Ratio EC50
Nc1nc(=O)n([C@@H]2O[C@H](CO)[C@@H](O)[C@@H]2F)cc1Br | 10
CCc1cn([C@H]2O[C@@H](CO)[C@H](O)[C@H]2F)c(=O)[nH]c1=O (single isomer, unassigned) | 100

system: Macacine alphaherpesvirus 1; assay: Antiviral activity against Macacine herpesvirus 1 infected in rabbits assessed as survival after 5 months; assay type: functional; settings: not given

Compound | Activity [%]
Nc1nc2c(ncn2COC(CO)CO)c(=O)[nH]1 [GANCICLOVIR] | 100

system: Macacine alphaherpesvirus 1; assay: Ratio of acyclovir EC50 to compound EC50 for Macacine herpesvirus 1 isolate MR9 infected in african green monkey Vero cells; assay type: functional; settings: not given

Compound | Ratio EC50
Nc1nc(=O)n([C@@H]2O[C@H](CO)[C@@H](O)[C@@H]2F)cc1Br | 10
CCc1cn([C@H]2O[C@@H](CO)[C@H](O)[C@H]2F)c(=O)[nH]c1=O (single isomer, unassigned) | 100

system: Macacine alphaherpesvirus 1; assay: Ratio of acyclovir EC50 to compound EC50 for Macacine herpesvirus 1 isolate MR3 infected in african green monkey Vero cells; assay type: functional; settings: not given

Compound | Ratio EC50
Nc1nc(=O)n([C@@H]2O[C@H](CO)[C@@H](O)[C@@H]2F)cc1Br | 10
CCc1cn([C@H]2O[C@@H](CO)[C@H](O)[C@H]2F)c(=O)[nH]c1=O (single isomer, unassigned) | 100

system: Human alphaherpesvirus 1; assay: Antiviral activity against HSV1 infected in african green monkey Vero cells by plaque reduction assay; assay type: functional, organism-based; settings: Human alphaherpesvirus 1, Vero

Compound | EC50 [µM]
Nc1nc2c(ncn2COC(CO)CO)c(=O)[nH]1 [GANCICLOVIR] | 19.3

system: Macacine alphaherpesvirus 1; assay: Ratio of acyclovir EC50 to compound EC50 for Macacine herpesvirus 1 isolate MC2 infected in african green monkey Vero cells; assay type: functional; settings: not given

Compound | Ratio EC50
Nc1nc(=O)n([C@@H]2O[C@H](CO)[C@@H](O)[C@@H]2F)cc1Br | 10
CCc1cn([C@H]2O[C@@H](CO)[C@H](O)[C@H]2F)c(=O)[nH]c1=O (single isomer, unassigned) | 100

system: Macacine alphaherpesvirus 1; assay: Ratio of acyclovir EC50 to compound EC50 for Macacine herpesvirus 1 isolate A4 infected in african green monkey Vero cells; assay type: functional; settings: not given

Compound | Ratio EC50
Nc1nc(=O)n([C@@H]2O[C@H](CO)[C@@H](O)[C@@H]2F)cc1Br | 10
CCc1cn([C@H]2O[C@@H](CO)[C@H](O)[C@H]2F)c(=O)[nH]c1=O (single isomer, unassigned) | 100

system: Macacine alphaherpesvirus 1; assay: Ratio of acyclovir EC50 to compound EC50 for Macacine herpesvirus 1 isolate MJ1 infected in african green monkey Vero cells; assay type: functional; settings: not given

Compound | Ratio EC50
Nc1nc(=O)n([C@@H]2O[C@H](CO)[C@@H](O)[C@@H]2F)cc1Br | 10
CCc1cn([C@H]2O[C@@H](CO)[C@H](O)[C@H]2F)c(=O)[nH]c1=O (single isomer, unassigned) | 100

system: Macacine alphaherpesvirus 1; assay: Ratio of acyclovir EC50 to compound EC50 for Macacine herpesvirus 1 isolate MR1 infected in african green monkey Vero cells; assay type: functional; settings: not given

Compound | Ratio EC50
Nc1nc(=O)n([C@@H]2O[C@H](CO)[C@@H](O)[C@@H]2F)cc1Br | 10
CCc1cn([C@H]2O[C@@H](CO)[C@H](O)[C@H]2F)c(=O)[nH]c1=O (single isomer, unassigned) | 100

system: Macacine alphaherpesvirus 1; assay: Ratio of acyclovir EC50 to compound EC50 for Macacine herpesvirus 1 isolate A2 infected in african green monkey Vero cells; assay type: functional; settings: not given

Compound | Ratio EC50
Nc1nc(=O)n([C@@H]2O[C@H](CO)[C@@H](O)[C@@H]2F)cc1Br | 10
CCc1cn([C@H]2O[C@@H](CO)[C@H](O)[C@H]2F)c(=O)[nH]c1=O (single isomer, unassigned) | 100

system: Macacine alphaherpesvirus 1; assay: Ratio of acyclovir EC50 to compound EC50 for Macacine herpesvirus 1 isolate MJ3 infected in african green monkey Vero cells; assay type: functional; settings: not given

Compound | Ratio EC50
Nc1nc(=O)n([C@@H]2O[C@H](CO)[C@@H](O)[C@@H]2F)cc1Br | 10
CCc1cn([C@H]2O[C@@H](CO)[C@H](O)[C@H]2F)c(=O)[nH]c1=O (single isomer, unassigned) | 100

system: Macacine alphaherpesvirus 1; assay: Ratio of acyclovir EC50 to compound EC50 for Macacine herpesvirus 1 isolate MR4 infected in african green monkey Vero cells; assay type: functional; settings: not given

Compound | Ratio EC50
Nc1nc(=O)n([C@@H]2O[C@H](CO)[C@@H](O)[C@@H]2F)cc1Br | 10
CCc1cn([C@H]2O[C@@H](CO)[C@H](O)[C@H]2F)c(=O)[nH]c1=O (single isomer, unassigned) | 100

system: Macacine alphaherpesvirus 1; assay: Ratio of acyclovir EC50 to compound EC50 for Macacine herpesvirus 1 isolate MR5 infected in african green monkey Vero cells; assay type: functional; settings: not given

Compound | Ratio EC50
Nc1nc(=O)n([C@@H]2O[C@H](CO)[C@@H](O)[C@@H]2F)cc1Br | 10
CCc1cn([C@H]2O[C@@H](CO)[C@H](O)[C@H]2F)c(=O)[nH]c1=O (single isomer, unassigned) | 100

system: Macacine alphaherpesvirus 1; assay: Ratio of acyclovir EC50 to compound EC50 for Macacine herpesvirus 1 isolate A3 infected in african green monkey Vero cells; assay type: functional; settings: not given

Compound | Ratio EC50
Nc1nc(=O)n([C@@H]2O[C@H](CO)[C@@H](O)[C@@H]2F)cc1Br | 10
CCc1cn([C@H]2O[C@@H](CO)[C@H](O)[C@H]2F)c(=O)[nH]c1=O (single isomer, unassigned) | 100

system: Macacine alphaherpesvirus 1; assay: Ratio of acyclovir EC50 to compound EC50 for Macacine herpesvirus 1 isolate MR6 infected in african green monkey Vero cells; assay type: functional; settings: not given

Compound | Ratio EC50
Nc1nc(=O)n([C@@H]2O[C@H](CO)[C@@H](O)[C@@H]2F)cc1Br | 10
CCc1cn([C@H]2O[C@@H](CO)[C@H](O)[C@H]2F)c(=O)[nH]c1=O (single isomer, unassigned) | 100
